The subject of test [1] is P. aeruginosa (ATCC 15442). The experiment in a line: MIC and MBC, microtiter plate technique. It counts as cell-based. As to conditions: ATCC15442, Pseudomonas aeruginosa; for MIC: 24 h, resazurin; for MBC: TTC. For orientation: The colour change of resazurin is a common sign of viable cells or microbes.
The subject of a further test is E. coli R2 (ATCC 39544). The experiment in a line: MIC and MBC, microtiter plate technique. As to conditions: Escherichia coli; for MBC: ATCC39544; for MIC: ATCC39544, 24 h. Type of test: cell-based.
The next test has as its system E. coli R3 (ATCC 11775). The experiment in a line: MIC and MBC, microtiter plate technique. Type of test: cell-based. As to conditions: Escherichia coli; for MIC: ATCC11775, 24 h, resazurin; for MBC: ATCC11775, TTC.
The next test deals with E. cloacae (ATCC 49141). The experiment in a line: MIC and MBC, microtiter plate technique. It counts as cell-based. As to conditions: ATCC49141, Enterobacter cloacae; for MIC: 24 h, resazurin; for MBC: TTC.
In the next test the test system is S. aureus (ATCC 23235). Kind of test: microbe, parasite or virus in culture. It counts as cell-based. As to conditions: Staphylococcus aureus; for MBC: ATCC23235; for MIC: ATCC23235, 24 h.
In test [2] the test system is A. baumannii (ATCC 17978). Kind of test: MIC and MBC, microtiter plate technique. Type of test: cell-based. As to conditions: ATCC17978, Acinetobacter baumannii; for MIC: 24 h, resazurin; for MBC: TTC.
The subject of a further test is E. coli K12 (ATCC 25404). Kind of test: MIC and MBC, microtiter plate technique. Type of test: cell-based. As to conditions: Escherichia coli; for MBC: ATCC25404; for MIC: ATCC25404, 24 h.
The subject of a further test is E. coli R4 (ATCC 39543). Kind of test: MIC and MBC, microtiter plate technique. Type of test: cell-based. As to conditions: Escherichia coli; for MBC: ATCC39543; for MIC: ATCC39543, 24 h.
Test [3] addresses T1, mushroom tyrosinase (mTYR) (Agaricus bisporus, UniProt C7FF04).
T1 construct: purchased Sigma-Aldrich (Poznan, Poland); host or cells: Agaricus bisporus (extracted natural enzyme)
The experiment in a line: Tyrosinase assay with L-DOPA as substrate (absorbance at 475 nm). Type of test: biochemical. As to conditions: 100 µM compound. From the text:
Tyrosinase (Tyr) extracted from Agaricus bisporus (mushroom tyrosinase, mTYR) is commonly used as a model enzyme for human Tyr due to its high purity, stability, and commercial availability. It is frequently used in the selection of TYR inhibitors. Following established literature protocols, L-tyrosine and L-DOPA, which serve as substrates for monophenol and diphenol oxidation, respectively, were used to assess the tyrosinase inhibitory activity of synthesized target compounds [21].
Tyrosinase (Tyr) activity was measured using L-DOPA as substrate and phosphate buffer solution (PBS) as blank control, following the method described by Min He et al. (2022) with an ultraviolet spectrophotometer (Carry-300, Agilent Life Sciences and Chemical Analysis, Santa Clara, CA, USA). […] Before the experiment, 2.9 mL of PBS and 0.1 mL of DMSO were used to account for the influence of the background solvent. The inhibitor solution (100 µL), substrate solution (2.8 mL), and Tyr solution (100 µL) were then added to a quartz colorimetric cuvette. After a one-minute mixing period, the absorption spectra of the mixture were continuously recorded at 475 nm using the UV spectrophotometer (Carry-300) for 5 min over a period of every 30 s. The tyrosinase inhibition rate was calculated as follows:Relative enzyme activity (%) = (A1 − A2)/A1 × 100
A1 = Absorbance of L-DOPA and inhibitor.
A2 = Absorbance of L-DOPA, inhibitor, and tyrosinase.

In brackets after ≈: the same amount, converted by molar mass.

By inhibition is commonly meant the change of the read-out against control, counted positive when it falls. Low values mean a weak effect, high ones a strong effect.

T1 sequence (C7FF04 1-392 limits assumed): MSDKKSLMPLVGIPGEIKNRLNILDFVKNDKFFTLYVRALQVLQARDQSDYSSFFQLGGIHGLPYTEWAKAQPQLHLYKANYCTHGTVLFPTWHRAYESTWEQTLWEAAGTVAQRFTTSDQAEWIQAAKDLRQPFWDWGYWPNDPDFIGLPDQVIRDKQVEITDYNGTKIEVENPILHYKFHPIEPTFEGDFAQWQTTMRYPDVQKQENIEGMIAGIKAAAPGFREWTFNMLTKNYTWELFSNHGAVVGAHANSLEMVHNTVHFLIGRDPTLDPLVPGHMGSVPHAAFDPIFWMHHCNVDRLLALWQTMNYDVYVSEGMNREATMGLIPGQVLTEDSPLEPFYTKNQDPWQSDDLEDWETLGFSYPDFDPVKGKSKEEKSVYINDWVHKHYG

Regarding `COc1ccc(CNC(=O)C(c2ccc(O)c(O)c2)N(C(=O)Cc2ccccc2)C2CCCCC2)cc1` (stereo not shown) [Compound 5e], the MIC in [1] was determined as 0.67 µM (≈ 0.337 µg/mL); in the test on E. coli R2 (ATCC 39544) it was 0.71 µM (≈ 0.357 µg/mL); against E. coli R3 (ATCC 11775), 0.89 µM (≈ 0.447 µg/mL); against E. cloacae (ATCC 49141), 0.64 µM (≈ 0.322 µg/mL); with S. aureus (ATCC 23235), 0.67 µM (≈ 0.337 µg/mL); in [2], 0.72 µM (≈ 0.362 µg/mL). Moreover, the figures for the MIC against E. coli K12 (ATCC 25404) and in the test on E. coli R4 (ATCC 39543) were 0.3 µM (≈ 0.151 µg/mL) and 1.37 µM (≈ 0.689 µg/mL), respectively. For the same compound, the MBC stood at 0.69 µM (≈ 0.347 µg/mL) in test [1]; 0.89 µM (≈ 0.447 µg/mL) in the test on E. coli R2 (ATCC 39544); 1.15 µM (≈ 0.578 µg/mL) in the test with E. coli R3 (ATCC 11775); 0.7 µM (≈ 0.352 µg/mL) in the test with E. cloacae (ATCC 49141); 0.69 µM (≈ 0.347 µg/mL) with S. aureus (ATCC 23235); 0.75 µM (≈ 0.377 µg/mL) in [2]. Further, the MBC was determined as 0.87 µM (≈ 0.437 µg/mL) with E. coli K12 (ATCC 25404) and 1.29 µM (≈ 0.648 µg/mL) with E. coli R4 (ATCC 39543).

Consider `CC(=O)N(C1CCCCC1)C(C(=O)NCc1ccccc1)c1ccc(O)c(O)c1` (stereo not shown) [Compound 5m, N-benzyl-2-(N-cyclohexylacetamido)-2-(3,4-dihydroxyphenyl)acetamide], for which the MIC in test [1] amounted to 0.8 µM (≈ 0.317 µg/mL); with E. coli R2 (ATCC 39544), 0.94 µM (≈ 0.373 µg/mL); against E. coli R3 (ATCC 11775), 1.24 µM (≈ 0.492 µg/mL); in the test with E. cloacae (ATCC 49141), 0.81 µM (≈ 0.321 µg/mL); against S. aureus (ATCC 23235), 0.75 µM (≈ 0.297 µg/mL); in test [2], 0.79 µM (≈ 0.313 µg/mL). Moreover, the results for the MIC against E. coli K12 (ATCC 25404) and against E. coli R4 (ATCC 39543) were 0.35 µM (≈ 0.139 µg/mL) and 0.59 µM (≈ 0.234 µg/mL), respectively. Moreover, the MBC in [1] was 0.91 µM (≈ 0.361 µg/mL); with E. coli R2 (ATCC 39544) it was 1.31 µM (≈ 0.519 µg/mL); in the test with E. coli R3 (ATCC 11775) it was 1.38 µM (≈ 0.547 µg/mL); against E. cloacae (ATCC 49141), 0.89 µM (≈ 0.353 µg/mL); with S. aureus (ATCC 23235) it was 0.78 µM (≈ 0.309 µg/mL); in [2], 0.88 µM (≈ 0.349 µg/mL). Besides, the MBC worked out at 0.85 µM (≈ 0.337 µg/mL) in the test with E. coli K12 (ATCC 25404) and 1.53 µM (≈ 0.607 µg/mL) against E. coli R4 (ATCC 39543).

Take `COc1ccc(CN(C(C)=O)C(C(=O)NCc2ccc(F)cc2)c2ccc(O)c(O)c2)cc1` (stereo not shown) [Compound 5l, 2-(3,4-dihydroxyphenyl)-N-(4-fluorobenzyl)-2-(N-(4-methoxybenzyl)acetamido)-acetamide]: the MIC in test [1] turned out to be 1.23 µM (≈ 0.557 µg/mL); in the test with E. coli R2 (ATCC 39544), 1.17 µM (≈ 0.529 µg/mL); against E. coli R3 (ATCC 11775), 1.64 µM (≈ 0.742 µg/mL); in the test on E. cloacae (ATCC 49141), 1.23 µM (≈ 0.557 µg/mL); against S. aureus (ATCC 23235), 1.27 µM (≈ 0.575 µg/mL); in [2], 1 µM (≈ 0.452 µg/mL). For the same compound, the MIC with E. coli K12 (ATCC 25404) was 0.64 µM (≈ 0.29 µg/mL); against E. coli R4 (ATCC 39543) it was 2.61 µM (≈ 1.18 µg/mL). Moreover, the MBC turned out to be 1.26 µM (≈ 0.57 µg/mL) in test [1]; 1.21 µM (≈ 0.548 µg/mL) against E. coli R2 (ATCC 39544); 2.62 µM (≈ 1.19 µg/mL) against E. coli R3 (ATCC 11775); 1.27 µM (≈ 0.575 µg/mL) against E. cloacae (ATCC 49141); 1.28 µM (≈ 0.579 µg/mL) against S. aureus (ATCC 23235); 1.03 µM (≈ 0.466 µg/mL) in [2]. Besides, the MBC against E. coli K12 (ATCC 25404) worked out at 0.77 µM (≈ 0.348 µg/mL); against E. coli R4 (ATCC 39543) it was 2.76 µM (≈ 1.25 µg/mL).

For `CCCCN(C(=O)Cc1ccccc1)C(C(=O)NCc1ccc(F)cc1)c1ccc(O)c(O)c1` (stereo not shown) [Compound 5i], the MIC is 1.23 µM (≈ 0.571 µg/mL) in test [1]; 1.17 µM (≈ 0.544 µg/mL) in the test on E. coli R2 (ATCC 39544); 1.92 µM (≈ 0.892 µg/mL) in the test on E. coli R3 (ATCC 11775); 1.21 µM (≈ 0.562 µg/mL) with E. cloacae (ATCC 49141); 0.99 µM (≈ 0.46 µg/mL) in the test with S. aureus (ATCC 23235); 0.99 µM (≈ 0.46 µg/mL) in [2]. Besides, the results for the MIC against E. coli K12 (ATCC 25404) and in the test with E. coli R4 (ATCC 39543) were 0.6 µM (≈ 0.279 µg/mL) and 2.31 µM (≈ 1.07 µg/mL), respectively. Also, the MBC in [1] came out at 1.26 µM (≈ 0.585 µg/mL); against E. coli R2 (ATCC 39544), 1.16 µM (≈ 0.539 µg/mL); against E. coli R3 (ATCC 11775), 2.13 µM (≈ 0.989 µg/mL); in the test with E. cloacae (ATCC 49141) it was 1.27 µM (≈ 0.59 µg/mL); in the test on S. aureus (ATCC 23235), 1.05 µM (≈ 0.488 µg/mL); in test [2], 1.05 µM (≈ 0.488 µg/mL). For the same compound, the MBC with E. coli K12 (ATCC 25404) came out at 1.05 µM (≈ 0.488 µg/mL); in the test on E. coli R4 (ATCC 39543) it was 2.51 µM (≈ 1.17 µg/mL). Also, the inhibition at 100 µM in [3] is greater than 10%.

For the compound `CCCCN(C(C)=O)C(C(=O)NCc1ccccc1)c1ccc(O)c(O)c1` (stereo not shown) [Compound 5p, N-benzyl-2-(N-butylacetamido)-2-(3,4-dihydroxyphenyl)acetamide], the MIC is 0.88 µM (≈ 0.326 µg/mL) in test [1]; 0.84 µM (≈ 0.311 µg/mL) with E. coli R2 (ATCC 39544); 1.27 µM (≈ 0.47 µg/mL) against E. coli R3 (ATCC 11775); 0.86 µM (≈ 0.319 µg/mL) against E. cloacae (ATCC 49141); 0.87 µM (≈ 0.322 µg/mL) in the test on S. aureus (ATCC 23235); 0.87 µM (≈ 0.322 µg/mL) in test [2]. The MIC in the test with E. coli K12 (ATCC 25404) came out at 0.33 µM (≈ 0.122 µg/mL); against E. coli R4 (ATCC 39543), 1.58 µM (≈ 0.585 µg/mL). For the same compound, the MBC in test [1] was found to be 0.94 µM (≈ 0.348 µg/mL); against E. coli R2 (ATCC 39544), 1.51 µM (≈ 0.559 µg/mL); against E. coli R3 (ATCC 11775) it was 1.64 µM (≈ 0.608 µg/mL); in the test with E. cloacae (ATCC 49141) it was 0.94 µM (≈ 0.348 µg/mL); against S. aureus (ATCC 23235), 0.94 µM (≈ 0.348 µg/mL); in test [2], 0.9 µM (≈ 0.333 µg/mL). For the same compound, the MBC in the test on E. coli K12 (ATCC 25404) was 0.89 µM (≈ 0.33 µg/mL); with E. coli R4 (ATCC 39543), 1.7 µM (≈ 0.63 µg/mL). The compound further gave an inhibition at 100 µM in test [3] greater than 10%.

These data come from publication PMC11855086, “Synthesis, Antimicrobial Activity, and Tyrosinase Inhibition by Multifunctional 3,4-Dihydroxy-Phenyl Peptidomimetics” (International Journal of Molecular Sciences, 2025).
